The values that follow come from US10918727B2, “Peptide with ability to penetrate cell membrane” (ICURE BNP CO., LTD., priority 2016, dated 2021).

The subject of one series is male ICR mice. Briefly: Repeated-dose toxicity of nasal insulin formulations (10 days). Format: in vivo, mouse. Particulars: intranasal once a day for 10 days (insulin 2 IU/kg). As to the method: The collected blood was centrifuged to isolate serum, and the isolated serum was analyzed using an automatic serum analyzer. […] From the organ tissue, paraffin sections were prepared, and then stained with H&E (Hematoxylin and Eosin). Histopathological examination of the stained tissues was performed using an optical microscope.

The test system of series [1] is nasal mucosal membrane (female BALB/c mice). Description: Penetration of OVA into nasal mucosal epithelial cells after intranasal OVA/TCTP-PTD 13 mixture (immunofluorescence). Format: in vivo, mouse. Particulars: intranasal 10 μl, OVA 10 μM (4.5 μg), OVA:PTD 1:30, 15 minutes. As to the method:
First, OVA and L-PTD 13 or D-PTD 13 were dissolved in PBS (phosphate buffered saline, pH 7.4) such that the concentrations of OVA and TCTP-PTD would be 10 μM and 300 μM, respectively, thereby preparing mixtures. Herein, OVA and TCTP-PTD were mixed at a molar ratio of 1:30.
Female BALB/c mice (6-8-week-old) were anesthetized by intraperitoneal injection of 50 mg/kg of zoletil and 10 mg/kg of xylazine.
10 μl of OVA, the OVA/D-PTD 13 mixture or the OVA/L-PTD 13 mixture was administered intranasally to each of the anesthetized mice. A control group was administered with 4.5 μg of OVA alone.
15 minutes after intranasal administration, the nasal tissue was collected. The collected nasal tissue was fixed with 10% formalin for about 24 hours, and then decalcified using 4 M formic acid at 4° C. for 30 hours. After decalcification, the nasal tissue was embedded in paraffin according to a conventional method, sectioned to a thickness of 5 μm, and attached to a slide. […] After incubation with the primary antibody, the slide was washed with PBS, and then incubated with a 1:100 dilution of secondary antibody (green fluorescence; Alexa 488-conjugated secondary antibodies, Invitrogen) at room temperature for 1 hour. The slide was washed with PBS, and then the nucleus was stained with DAPI (blue fluorescence), followed by observation with a fluorescence microscope.

Take `C[C@H](CCC(=O)NCCS(=O)(=O)[O-])[C@H]1CC[C@H]2[C@@H]3CC[C@@H]4C[C@H](O)CC[C@]4(C)[C@H]3C[C@H](O)[C@]12C.[Na+]` [sodium taurodeoxycholate]: in the series with male ICR mice, the “histological evaluation of the nasal mucosal tissue” value was “destroyed”.
With “ovalbumin [OVA (ovalbumin), 45 kDa, model antigen for vaccination]”, the “OVA fluorescence inside the nasal mucosal membrane” value in series [1] is “not substantially observed inside the nasal mucosal membrane”.
